In brackets after ≈: the same amount, converted by molar mass. Structures can show the parent of a compound that is named as a salt. Where two headings read alike, the source gives them in different places.
What was measured:
[1] = subcutaneous injection of PLGA microspheres containing the drug; 50 mg/rabbit; cited from earlier work
[2] = oil-in-water coefficient (logP)
[3] = drug saturated solubility in water

SMILES | time the effective serum concentration lasted [1] | logP [2] | solubility [3] | solubility ([3]; water)
CCCCCCCCCC(=O)Oc1ccc2c3c1O[C@H]1[C@@H](O)CC[C@@]4(O)[C@@H](C2)N(CC2CCC2)CC[C@]314 [Nalbuphine decanoate] | 4 days | 3.3 | 0.67 µg/mL (≈ 1.31 µM) | –
CCC(=O)Oc1ccc2c3c1O[C@H]1[C@@H](O)CC[C@@]4(O)[C@@H](C2)N(CC2CCC2)CC[C@]314 [Nalbuphine propionate] | 4 days | 1.05 | 44.7 µg/mL (≈ 108 µM) | –
Oc1ccc2c3c1O[C@H]1[C@@H](O)CC[C@@]4(O)[C@@H](C2)N(CC2CCC2)CC[C@]314 [Nalbuphine HCl] | – | – | – | > 25000 µg/mL
O=C(CCCCCCCCC(=O)Oc1ccc2c3c1O[C@H]1[C@@H](O)CC[C@@]4(O)[C@@H](C2)N(CC2CCC2)CC[C@]314)Oc1ccc2c3c1O[C@H]1[C@@H](O)CC[C@@]4(O)[C@@H](C2)N(CC2CCC2)CC[C@]314 [Sebacoyl dinalbuphine ester] | – | 3.15 | < 0.25 µg/mL | –
CCCCCCC(=O)Oc1ccc2c3c1O[C@H]1[C@@H](O)CC[C@@]4(O)[C@@H](C2)N(CC2CCC2)CC[C@]314 [Nalbuphine enanthate] | – | 1.94 | 3 µg/mL (≈ 6.39 µM) | –
CC(C)(C)C(=O)Oc1ccc2c3c1O[C@H]1[C@@H](O)CC[C@@]4(O)[C@@H](C2)N(CC2CCC2)CC[C@]314 [Nalbuphine pivalate] | 4 days | 1.42 | 33.7 µg/mL (≈ 76.3 µM) | –
